According to the supplement of paper PMC11061612:

Columns and labels:
AGS (Gastric Carcinoma) = assay: Bliss excess, mean over the matrix (fraction); higher = more synergy
In short: (§1)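 Cell lines in DMEM/F12 or RPMI with 10% FBS were plated in 1536-well plates, held 24 hours at 37°C, 5% CO2, then given two-drug dose matrices for 72 hours (DMSO typically 0.2%). Viability was read by CellTiter-Glo 2.0 luminescence and scaled as inhibition from 0 (vehicle wells) to 1 (blank wells). Combination Emax is the second-highest inhibition in the matrix; Bliss excess is observed combination effect minus expected EA + EB − EA·EB, EA and EB being single-agent effects.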

[1] = test system: Calu-3 (Lung Adenocarcinoma); assay: as above
In short: as §1

[2] = test system: HCC-78 (Lung Adenocarcinoma); assay: as above
In short: as §1

[3] = test system: LB831-BLC (Bladder Carcinoma); assay: as above
In short: as §1

[4] = test system: LNCaP-Clone-FGC (Prostate Carcinoma); assay: as above
In short: as §1

[5] = test system: SNU-5 (Gastric Carcinoma); assay: as above
In short: as §1

42-MG-BA (Glioblastoma) = assay: combination Emax (second highest fraction inhibited in the dose matrix, 72 h); higher = more inhibition; extreme values may be limits of the assay
In short: as §1

[6] = test system: CAL-148 (Breast Carcinoma); assay: as above
In short: as §1

[7] = test system: EC-GI-10 (Esophageal Squamous Cell Carcinoma); assay: as above
In short: as §1

[8] = test system: HCC-78 (Lung Adenocarcinoma); assay: as above
In short: as §1

[9] = test system: HCC1806 (Breast Carcinoma); assay: as above
In short: as §1

[10] = test system: KP-1N (Pancreatic Carcinoma); assay: as above
In short: as §1

[11] = test system: KURAMOCHI (Ovarian Carcinoma); assay: as above
In short: as §1

[12] = test system: LB831-BLC (Bladder Carcinoma); assay: as above
In short: as §1

NB10 (Neuroblastoma) = assay: as above
In short: as §1

NOS-1 (Osteosarcoma) = assay: as above
In short: as §1

[13] = test system: RO82-W-1 (Thyroid Gland Carcinoma); assay: as above
In short: as §1

[14] = test system: Ramos-2G6-4C10 (Burkitt's Lymphoma); assay: as above
In short: as §1

[15] = test system: SNU-5 (Gastric Carcinoma); assay: as above
In short: as §1

[16] = test system: UM-UC-3 (Bladder Carcinoma); assay: as above
In short: as §1
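Throughout, for Bliss excess, mean over the matrix: after 72 h of two-drug dosing.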

SMILES	Bliss excess (AGS (Gastric Carcinoma))	Bliss excess [1]	Bliss excess [2]	Bliss excess [3]	Bliss excess [4]	Bliss excess [5]	combination Emax (42-MG-BA (Glioblastoma))	combination Emax [6]	combination Emax [7]	combination Emax [8]	combination Emax [9]	combination Emax [10]	combination Emax [11]	combination Emax [12]	combination Emax (NB10 (Neuroblastoma))	combination Emax (NOS-1 (Osteosarcoma))	combination Emax [13]	combination Emax [14]	combination Emax [15]	combination Emax [16]
COc1cccc(OCCCN)c1-c1cc(Nc2cnc(C#N)cn2)n[nH]1 [Prexasertib] + C[C@@H]1COCCN1C2=NC(=NC(=C2)C3(CC3)[S@](=N)(=O)C)C4=C5C=CNC5=NC=C4 [AZD6738] (first compound max 1 µM, 7x7, partner max 10 µM)	0.0164	-0.0108	0.0318	0.019	-0.0427	-0.0371	0.904	0.895	0.713	0.744	0.988	0.324	0.647	0.363	0.863	0.381	0.441	1	0.975	0.615
C[C@@H]1COCCN1c1cc(C2([S@](C)(=N)=O)CC2)nc(-c2ccnc3[nH]ccc23)n1 [AZD6738] + O=C(c1cc(Cc2n[nH]c(=O)c3ccccc23)ccc1F)N1CCN(C(=O)C2CC2)CC1 [Olaparib] (first compound max 10 µM, 7x7, partner max 10 µM)	-0.0108	0.0139	0.0171	0.0336	-0.0297	-0.0464	0.576	0.935	0.747	0.638	0.89	0.425	0.549	0.373	0.811	0.326	0.353	0.779	0.909	0.584
CCN(CCO)CCCOc1ccc2c(Nc3cc(CC(=O)Nc4cccc(F)c4)[nH]n3)ncnc2c1 [AZD2811] + C[C@@H]1COCCN1C2=NC(=NC(=C2)C3(CC3)[S@](=N)(=O)C)C4=C5C=CNC5=NC=C4 [AZD6738] (first compound max 1 µM, 7x7, partner max 10 µM)	-0.0191	-0.0169	0.0099	-0.0744	-0.0447	-0.0209	0.568	1	0.824	0.595	0.931	0.199	0.569	0.238	0.771	0.288	0.405	0.911	0.907	0.429
COc1cccc(OCCCN)c1-c1cc(Nc2cnc(C#N)cn2)n[nH]1 [Prexasertib] + C=CCn1c(=O)c2cnc(Nc3ccc(N4CCN(C)CC4)cc3)nc2n1-c1cccc(C(C)(C)O)n1 [AZD1775] (first compound max 1 µM, partner max 1 µM)	0.195	0.0255	0.0774	0.168	-0.0172	0.0491	0.941	1	0.956	0.793	0.983	0.575	0.773	0.836	0.953	0.432	0.553	1	0.969	0.807
COc1cccc(OCCCN)c1-c1cc(Nc2cnc(C#N)cn2)n[nH]1 [Prexasertib] + O=C(c1cc(Cc2n[nH]c(=O)c3ccccc23)ccc1F)N1CCN(C(=O)C2CC2)CC1 [Olaparib] (first compound max 1 µM, 7x7, partner max 10 µM)	0.0033	-0.0558	-0.0733	-0.0175	-0.049	-0.0633	0.908	0.696	0.78	0.718	0.999	0.332	0.68	0.448	0.797	0.373	0.45	1	0.968	0.629
CN(CCO)CC[C@H](CSc1ccccc1)Nc1ccc(S(=O)(=O)NC(=O)c2ccc(N3CCC([C@@H](O)c4ccccc4-c4ccc(Cl)cc4)CC3)cc2)cc1S(=O)(=O)C(F)(F)F [AZD4320] + C1CN(CCC1(C(=O)N[C@@H](CCO)C2=CC=C(C=C2)Cl)N)C3=NC=NC4=C3C=CN4 [Capivasertib] (first compound max 1 µM, 7x7, partner max 3 µM)	-0.0081	-0.0149	-0.034	-0.0212	-0.0239	-0.0453	0.594	1	0.204	0.31	0.212	0.0744	0.351	0.338	0.108	0.475	0.311	0.586	0.447	0.196
CC(=O)c1c(C)c2cnc(Nc3ccc(N4CCNCC4)cn3)nc2n(C2CCCC2)c1=O [Palbociclib] + Cc1c2c(nn1C)CSCc1cc(n(C)n1)CSc1cc(c3ccccc3c1)OCCCc1c(C(=O)O)n(C)c3c-2c(Cl)ccc13 [AZD5991] (first compound max 10 µM, 7x7, partner max 1 µM)	-0.04	-0.0039	-0.0015	-0.0092	0.0049	-0.0206	0.391	0.376	0.543	0.251	0.383	0.212	0.358	0.275	0.369	0.925	0.189	0.986	0.347	0.253
Cn1cnc2c(F)c(Nc3ccc(Br)cc3Cl)c(C(=O)NOCCO)cc21 [Selumetinib] + CC(C)n1c(=O)n(C)c2cnc3cc(F)c(-c4ccc(OCCCN5CCCCC5)nc4)cc3c21 [AZD1390] (first compound max 10 µM, 7x7, partner max 0.3 µM)	-0.0446	-0.023	-0.0313	-0.0237	-0.0381	0.0649	0.185	0.158	0.323	0.123	0.299	0.102	0.194	0.214	0.32	0.257	0.125	0.137	0.54	0.187
CN(CCO)CC[C@H](CSc1ccccc1)Nc1ccc(S(=O)(=O)NC(=O)c2ccc(N3CCC([C@@H](O)c4ccccc4-c4ccc(Cl)cc4)CC3)cc2)cc1S(=O)(=O)C(F)(F)F [AZD4320] + C=CCn1c(=O)c2cnc(Nc3ccc(N4CCN(C)CC4)cc3)nc2n1-c1cccc(C(C)(C)O)n1 [AZD1775] (first compound max 1 µM, partner max 1 µM)	0.0191	0.014	-0.0072	0.0317	-0.0222	0.0426	0.293	0.994	0.903	0.232	0.972	0.398	0.807	0.634	0.493	0.992	0.618	1	0.658	0.276
CC1(C)CCC(CN2CCN(c3ccc(C(=O)NS(=O)(=O)c4ccc(NCC5CCOCC5)c([N+](=O)[O-])c4)c(Oc4cnc5[nH]ccc5c4)c3)CC2)=C(c2ccc(Cl)cc2)C1 [Venetoclax] + C1CN(CCC1(C(=O)N[C@@H](CCO)C2=CC=C(C=C2)Cl)N)C3=NC=NC4=C3C=CN4 [Capivasertib] (first compound max 1 µM, 7x7, partner max 3 µM)	-0.0406	-0.0116	-0.0331	-0.0272	-0.0464	-0.0485	0.518	0.966	0.426	0.276	0.231	0.172	0.536	0.334	0.139	0.171	0.251	0.173	0.336	0.272
COc1nnc2ccc(N3CCC(c4ccc(OCCN5CCN(C)C(=O)[C@H]5C)cc4)CC3)nn12 [AZD5153] + Cn1cnc2c(F)c(Nc3ccc(Br)cc3Cl)c(C(=O)NOCCO)cc21 [Selumetinib] (first compound max 1 µM, 7x7, partner max 10 µM)	0.0163	0.0229	0.0035	-0.0446	-0.0583	-0.0254	0.705	0.79	0.526	0.451	0.687	0.563	0.707	0.494	0.785	0.894	0.456	0.56	0.582	0.527
Cc1c2c(nn1C)CSCc1cc(n(C)n1)CSc1cc(c3ccccc3c1)OCCCc1c(C(=O)O)n(C)c3c-2c(Cl)ccc13 [AZD5991] + C1CN(CCC1(C(=O)N[C@@H](CCO)C2=CC=C(C=C2)Cl)N)C3=NC=NC4=C3C=CN4 [Capivasertib] (first compound max 1 µM, 7x7, partner max 3 µM)	0.0013	0.0134	0.0056	0.0133	-0.043	0.0135	1	1	0.775	0.228	0.528	0.249	0.307	0.352	0.194	0.79	0.246	1	0.288	0.216
COc1cc2c(cc1OCCCCCOc1cc3c(cc1OC)C(=O)N1C=C(C)C[C@H]1C=N3)N=C[C@@H]1CC(C)=CN1C2=O [SG3199] + O=C(c1cc(Cc2n[nH]c(=O)c3ccccc23)ccc1F)N1CCN(C(=O)C2CC2)CC1 [Olaparib] (first compound max 0.001 µM, 7x7, partner max 10 µM)	-0.0061	-0.0266	-0.0294	-0.0486	0.0189	-0.0105	0.247	0.211	0.198	0.101	0.212	0.18	0.129	0.159	0.348	0.155	0.17	0	0.129	0.132
